# According to ChEMBL document CHEMBL5375984, “Development of Ligands for the Super Conserved Orphan G Protein-Coupled Receptor GPR27 with Improved Efficacy and Potency” (J Med Chem, 2023):
# pEC50: −log10 of the molar value.
# Key:
# [1] = target: T1, GPR27-V2 (Homo sapiens, UniProt P30518+Q9NS67); experiment: Agonist activity at CLuc-tagged human GPR27-V2 expressed in HEK293 cells incubated for 10 mins by beta-arrestin 2 recruitment based firefly luciferase complementation assay
# [2] = target: Probable G-protein coupled receptor 27 (Homo sapiens, UniProt Q9NS67); experiment: Agonist activity at CLuc-tagged human GPR27 expressed in HEK293 cells incubated for 10 mins by beta-arrestin 2 recruitment based firefly luciferase complementation assay
# Probable G-protein coupled receptor 27, sequence (Q9NS67 whole entry): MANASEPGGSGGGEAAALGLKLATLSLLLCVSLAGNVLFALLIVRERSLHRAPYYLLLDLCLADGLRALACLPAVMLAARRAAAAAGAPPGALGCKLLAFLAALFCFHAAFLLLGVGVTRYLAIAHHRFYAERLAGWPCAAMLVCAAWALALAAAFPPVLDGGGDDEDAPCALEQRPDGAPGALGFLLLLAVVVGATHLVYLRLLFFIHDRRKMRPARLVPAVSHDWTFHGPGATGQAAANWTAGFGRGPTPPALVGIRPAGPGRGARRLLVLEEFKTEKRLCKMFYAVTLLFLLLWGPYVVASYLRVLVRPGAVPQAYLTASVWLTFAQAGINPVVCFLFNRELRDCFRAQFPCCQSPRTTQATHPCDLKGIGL
# [3] = target: T1, GPR27-V2; experiment: Agonist activity at CLuc-tagged human GPR27-V2 expressed in HEK293 cells incubated overnight by beta-arrestin 2 recruitment based firefly luciferase complementation assay
# T1 sequence (P30518 whole entry): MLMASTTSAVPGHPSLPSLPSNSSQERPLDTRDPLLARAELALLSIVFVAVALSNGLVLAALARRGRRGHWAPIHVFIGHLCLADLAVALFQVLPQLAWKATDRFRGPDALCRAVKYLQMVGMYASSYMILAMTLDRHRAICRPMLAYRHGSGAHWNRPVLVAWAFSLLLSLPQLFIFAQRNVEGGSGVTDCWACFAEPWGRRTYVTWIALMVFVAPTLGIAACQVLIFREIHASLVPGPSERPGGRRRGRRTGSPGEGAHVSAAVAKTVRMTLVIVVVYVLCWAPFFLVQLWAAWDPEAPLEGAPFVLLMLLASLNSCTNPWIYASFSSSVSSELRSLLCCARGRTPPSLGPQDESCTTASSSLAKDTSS
# T1 sequence (Q9NS67 whole entry): as the sequence (Q9NS67 whole entry) above
SMILES,pEC50 [1],pEC50 [2],pEC50 [3]
Cc1cc(NS(=O)(=O)c2ccc(NC(=O)c3ccc(Cl)cc3Cl)cc2)no1,< 4.00,–,–
O=C(Nc1ccc(S(=O)(=O)Nc2cnc3ccccc3n2)cc1)c1ccc(Cl)cc1Cl,< 4.00,–,–
O=C(Nc1ccc(S(=O)(=O)Nc2ccccc2)cc1)c1ccc(Cl)cc1Cl,5.13,5.18,6.38
O=C(Nc1ccc(S(=O)(=O)Nc2nccs2)cc1)c1ccc(Cl)cc1Cl,–,–,6.18
O=C(Nc1ccc(S(=O)(=O)O)cc1)c1ccc(Cl)cc1Cl,< 4.00,–,–
Cc1cc(Cl)c(C(=O)Nc2ccc(S(=O)(=O)Nc3ccccc3)cc2)cc1F,–,< 4.50,–
CN(C)S(=O)(=O)c1ccc(NC(=O)c2ccc(Cl)cc2Cl)cc1,< 4.00,–,–
O=C(Nc1ccc(S(=O)(=O)Nc2ccccc2)cc1)c1ccc(F)cc1F,5.41,6.35,–
O=C(Nc1ccc(S(=O)(=O)Nc2ccccc2)cc1)c1ccc(C(F)(F)F)cc1Cl,5.41,5.17,–
Cc1cc(Br)c(F)cc1C(=O)Nc1ccc(S(=O)(=O)Nc2ccccc2)cc1,–,6.25,–
Cc1nnc(NS(=O)(=O)c2ccc(NC(=O)c3ccc(Cl)cc3Cl)cc2)s1,< 4.00,–,–
CC(=O)NS(=O)(=O)c1ccc(NC(=O)c2ccc(Cl)cc2Cl)cc1,< 4.00,–,–
O=C(Nc1ccc(S(=O)(=O)Nc2ccccc2)cc1)c1ccc(Br)cc1Br,5.49,5.91,–
CS(=O)(=O)c1ccc(NC(=O)c2ccc(Cl)cc2Cl)cc1,4.42,–,–
N#Cc1cc(Cl)c(C(=O)Nc2ccc(S(=O)(=O)Nc3ccccc3)cc2)c(Cl)c1,–,< 4.50,–
O=C(Nc1ccc(S(=O)(=O)Nc2ccccc2)cc1)c1ccc(C(F)(F)F)cc1C(F)(F)F,6.26,< 4.50,–
Cc1cc(Cl)c(Cl)cc1C(=O)Nc1ccc(S(=O)(=O)Nc2ccccc2)cc1,–,6.58,–
COc1cc(Cl)ccc1C(=O)Nc1ccc(S(=O)(=O)Nc2ccccc2)cc1,6.01,6.69,–
CNS(=O)(=O)c1ccc(NC(=O)c2ccc(Br)cc2Br)cc1,< 4.00,–,–

SMILES,pEC50 [1],pEC50 [2],pEC50 [3]
Cc1onc(NS(=O)(=O)c2ccc(NC(=O)c3ccc(Cl)cc3Cl)cc2)c1C,< 4.00,–,–
O=C(Nc1ccc(S(=O)(=O)Nc2ccccc2)cc1)c1cc(Cl)c(Cl)cc1Cl,–,6.23,–
N#Cc1ccc(C(=O)Nc2ccc(S(=O)(=O)Nc3ccccc3)cc2)c(Cl)c1,5.23,6.01,–
Cc1cc(C(=O)Nc2ccc(S(=O)(=O)Nc3ccccc3)cc2)c(Cl)cc1Cl,–,6.43,–
NS(=O)(=O)c1ccc(NC(=O)c2ccc(Br)cc2Br)cc1,< 4.00,–,–
O=C(Nc1ccc(S(=O)(=O)Nc2ccccc2)cc1)c1ccc(Cl)cc1OC(F)(F)F,6.71,< 4.50,–
O=C(Nc1ccc(S(=O)(=O)Nc2ccccc2)cc1)c1cc2ccccc2cc1Cl,–,6.02,–
O=C(Nc1ccc(S(=O)(=O)Nc2ccccc2)cc1)c1ccc(C(F)(F)F)cc1Br,5.16,6.61,–
COc1ccc(C(=O)Nc2ccc(S(=O)(=O)Nc3ccccc3)cc2)c(Cl)c1,5.09,< 4.50,–
O=C(Nc1ccc(S(=O)(=O)Nc2ccccc2)cc1)c1c(Cl)cc(Cl)cc1Cl,–,< 4.50,–
Cc1cc(C(=O)Nc2ccc(S(=O)(=O)Nc3ccccc3)cc2)c(F)cc1Br,–,5.67,–
O=C(Nc1ccc(S(=O)(=O)Nc2ccccc2)cc1)c1ccc(Cl)c(Cl)c1Cl,–,6.20,–
COc1ccc(C(=O)Nc2ccc(S(=O)(=O)Nc3ccccc3)cc2)c(C)c1,< 4.00,< 4.50,–
O=C(/C=C/c1ccc(Cl)cc1Cl)Nc1ccc(S(=O)(=O)Nc2ccccc2)cc1,< 4.00,–,–
Cc1cc(C(=O)Nc2ccc(S(=O)(=O)Nc3ccccc3)cc2)c(C)cc1Br,–,6.90,–
Cc1cc(C(=O)Nc2ccc(S(=O)(=O)Nc3ccccc3)cc2)c(C)cc1Cl,–,6.56,–
O=C(Nc1ccc(S(=O)(=O)Nc2ccccc2)cc1)c1cc(F)c(Cl)cc1Cl,–,6.42,–
Cc1cc(Cl)c(C(=O)Nc2ccc(S(=O)(=O)Nc3ccccc3)cc2)cc1Cl,–,6.44,–
